GI50 and TGI data for 6 molecules are collected here from PubChem BioAssay (NCI).

SMILES strings stand for the structures. Several values for one entry are separate records, joined by “and”; a condition that tells them apart may be missing. Equal values may be shown once.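 Exposure lasted 48 hours, with cells grown in 96-well plates and compounds tested at five concentrations. GI50: concentration for 50% inhibition of growth. TGI: concentration producing complete growth inhibition.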

Test systems include CAKI-1 renal; HCC-2998 colon; HCT-116 colon; OVCAR-3 ovarian; RPMI-8226 leukemia; RXF 393 renal; SF-268 CNS; SK-MEL-2 melanoma; SK-MEL-5 melanoma; UACC-257 melanoma.
Holding throughout (assay): NCI tumour cell line growth inhibition, 48 h

`CCOC(=O)c1ccc2c(c1)[n+](=O)c(C(C)=O)c(C(F)(F)F)n2[O-]`: the GI50 with CAKI-1 renal is 1.39 µM; with HCC-2998 colon, 1.05 µM; with HCT-116 colon, 1.39 µM; with OVCAR-3 ovarian, 1.49 µM; in the assay with RPMI-8226 leukemia it was 1.45 µM; in the assay on RXF 393 renal, 2.15 µM. Further, the GI50 in the assay on SF-268 CNS is 1.49 µM; in the assay on SK-MEL-2 melanoma, 1.89 µM; in the assay on SK-MEL-5 melanoma it was 1.5 µM; in the assay on UACC-257 melanoma, 1.76 µM. Moreover, the TGI in the assay with CAKI-1 renal worked out at 2.94 µM; in the assay with HCC-2998 colon, 2.45 µM; with HCT-116 colon, 3.34 µM; in the assay on OVCAR-3 ovarian it was 2.93 µM; in the assay with RPMI-8226 leukemia it was 4 µM; in the assay on RXF 393 renal, 5.77 µM. Also, the TGI amounted to 2.93 µM in the assay on SF-268 CNS, 5.22 µM in the assay on SK-MEL-2 melanoma, 2.84 µM in the assay on SK-MEL-5 melanoma and 3.5 µM in the assay on UACC-257 melanoma.
Consider `COc1ccc(C2C=C(c3ccc(Cl)cc3)N=C3SC=C(C)N32)c(Br)c1` (stereo not given), for which the GI50 was 2.98 µM in the assay on CAKI-1 renal; 4.43 µM in the assay on HCC-2998 colon; 2.58 µM in the assay on HCT-116 colon; 2.36 µM in the assay on OVCAR-3 ovarian; 2.18 µM in the assay with RPMI-8226 leukemia; 2.39 µM in the assay with RXF 393 renal. The GI50 in the assay on SF-268 CNS was 3.17 µM; in the assay on SK-MEL-2 melanoma it was 4.79 µM; in the assay with SK-MEL-5 melanoma, 2.8 µM; in the assay with UACC-257 melanoma, 4.42 µM. Besides, the TGI with CAKI-1 renal was 12.4 µM; in the assay with HCC-2998 colon, 14.6 µM; in the assay with HCT-116 colon, 11 µM; in the assay on OVCAR-3 ovarian it was 5.48 µM; in the assay on RPMI-8226 leukemia it was 9.67 µM; with RXF 393 renal it was 9.59 µM. In addition, the TGI is 13.1 µM in the assay with SF-268 CNS, 18.1 µM with SK-MEL-2 melanoma, 11.2 µM with SK-MEL-5 melanoma and 18.8 µM with UACC-257 melanoma.
`Cc1cc(Nc2cc(N3CCN(C)CC3)nc(Sc3ccc(NC(=O)C4CC4)cc3)n2)n[nH]1`: the GI50 in the assay on CAKI-1 renal is 4.27 µM; in the assay on HCC-2998 colon it was 5.66 µM; with HCT-116 colon, 0.273 µM; in the assay on OVCAR-3 ovarian, 3.46 µM; in the assay with RPMI-8226 leukemia it was 4.02 µM; in the assay with RXF 393 renal, 2.17 µM. For the same molecule, the GI50 with SF-268 CNS is 5.52 µM; with SK-MEL-2 melanoma, 5.51 µM; with SK-MEL-5 melanoma, 3.19 µM; in the assay on UACC-257 melanoma it was 3.52 µM. The TGI with CAKI-1 renal, in the assay on HCC-2998 colon, in the assay on HCT-116 colon, in the assay on OVCAR-3 ovarian, in the assay with RPMI-8226 leukemia and in the assay with RXF 393 renal was greater than 10 µM in each case. Further, the TGI with SF-268 CNS, in the assay with SK-MEL-2 melanoma, with SK-MEL-5 melanoma and with UACC-257 melanoma was greater than 10 µM throughout.
As for `O=c1cc(-c2ccccc2)oc2cc(OC/C(=N/O)c3ccc(F)cc3)ccc12`, the GI50 was 11.8 µM in the assay with CAKI-1 renal; 15.3 µM in the assay with HCC-2998 colon; 23.4 µM with HCT-116 colon; 11.4 µM with OVCAR-3 ovarian; 15.9 µM with RPMI-8226 leukemia; 14 µM with RXF 393 renal. The GI50 in the assay on SF-268 CNS is 19.7 µM; in the assay on SK-MEL-2 melanoma it was 20.2 µM; with SK-MEL-5 melanoma, 8.75 µM; with UACC-257 melanoma, 35.3 µM. The TGI with CAKI-1 renal is 38.6 µM; with HCC-2998 colon it was 45.8 µM; with HCT-116 colon it was greater than 50 µM; with OVCAR-3 ovarian it was 35.6 µM; in the assay with RPMI-8226 leukemia it was greater than 50 µM; in the assay with RXF 393 renal it was 40.2 µM. The TGI in the assay on SF-268 CNS was greater than 50 µM; in the assay with SK-MEL-2 melanoma, greater than 50 µM; in the assay with SK-MEL-5 melanoma, 21.1 µM; with UACC-257 melanoma, greater than 50 µM.
For `Cc1nc2sccn2c1C(=O)NC(=O)Nc1ccc(Cl)cc1`, the TGI in the assay on CAKI-1 renal, with HCC-2998 colon, in the assay with HCT-116 colon, in the assay on OVCAR-3 ovarian, in the assay on RPMI-8226 leukemia and with RXF 393 renal was greater than 100 µM throughout. In addition, the TGI with SF-268 CNS, with SK-MEL-2 melanoma, in the assay with SK-MEL-5 melanoma and with UACC-257 melanoma was greater than 100 µM in each case.
With `CN1CCN(CCOc2cc(OC3CCOCC3)c3c(Nc4c(Cl)ccc5c4OCO5)ncnc3c2)CC1`, the GI50 was 0.571 µM and 0.644 µM in the assay on CAKI-1 renal; 17.7 µM and > 10 µM with HCC-2998 colon; 8.75 µM and 2.76 µM in the assay with HCT-116 colon; 3.7 µM and 5.55 µM with OVCAR-3 ovarian; 19.4 µM and > 10 µM in the assay on RPMI-8226 leukemia; 0.788 µM and 1.02 µM with RXF 393 renal. The GI50 in the assay on SF-268 CNS is 4.72 µM and > 10 µM; in the assay on SK-MEL-2 melanoma, 16.6 µM and > 10 µM; in the assay on SK-MEL-5 melanoma, 11.4 µM and > 10 µM; in the assay with UACC-257 melanoma, 15.1 µM and > 10 µM. Also, the TGI is 10.5 µM and > 10 µM with CAKI-1 renal; 37.7 µM and > 10 µM in the assay on HCC-2998 colon; 29.2 µM and > 10 µM in the assay with HCT-116 colon; 22.2 µM and > 10 µM in the assay on OVCAR-3 ovarian; 63.4 µM and > 10 µM in the assay on RPMI-8226 leukemia; 12.6 µM and > 10 µM in the assay with RXF 393 renal. In addition, the TGI in the assay with SF-268 CNS was 33.8 µM and > 10 µM; in the assay with SK-MEL-2 melanoma, 31.8 µM and > 10 µM; in the assay on SK-MEL-5 melanoma, 23.6 µM and > 10 µM; with UACC-257 melanoma, 30.2 µM and > 10 µM.
